Results: patent US4479943A, “3-Demethoxyistamycin B, the 2"-N-formimidoyl derivative thereof and pharmaceutical composition containing same” (Zaidan Hojin Biseibutsu Kagaku Kenkyu Kai, priority 1982, dated 1984)
In brackets after ≈: the same amount, converted by molar mass.

Tests used:
[1] = tested on: Klebsiella pneumoniae PCI602; assay: Antibacterial MIC, standard serial dilution; assay type: cell-based; settings: nutrient agar, 37° C., 17 hours, as free base
bacteria = settings: in words; earlier work; cited from earlier work
Providencia sp. Pv16 = assay: Antibacterial MIC, standard serial dilution; assay type: cell-based; settings: nutrient agar, 37° C., 17 hours, as free base
Escherichia coli NIHJ = assay: Antibacterial MIC, standard serial dilution; assay type: cell-based; settings: nutrient agar, 37° C., 17 hours, as free base
[2] = tested on: Pseudomonas aeruginosa B-13; assay: Antibacterial MIC, standard serial dilution; assay type: cell-based; settings: nutrient agar, 37° C., 17 hours, as free base
[3] = tested on: Pseudomonas maltophilia GN 907; assay: Antibacterial MIC, standard serial dilution; assay type: cell-based; settings: nutrient agar, 37° C., 17 hours, as free base
[4] = tested on: Bacillus subtilis PCI 219; assay: Antibacterial MIC, standard serial dilution; assay type: cell-based; settings: nutrient agar, 37° C., 17 hours, as free base
[5] = tested on: Pseudomonas aeruginosa 99; assay: Antibacterial MIC, standard serial dilution; assay type: cell-based; settings: nutrient agar, 37° C., 17 hours, as free base
Salmonella typhi T-63 = assay: Antibacterial MIC, standard serial dilution; assay type: cell-based; settings: nutrient agar, 37° C., 17 hours, as free base
Escherichia coli K-12 R5 = assay: Antibacterial MIC, standard serial dilution; assay type: cell-based; settings: nutrient agar, 37° C., 17 hours, as free base
[6] = tested on: Pseudomonas aeruginosa ROS 134/PU21; assay: Antibacterial MIC, standard serial dilution; assay type: cell-based; settings: nutrient agar, 37° C., 17 hours, as free base
Proteus vulgaris 0X19 = assay: Antibacterial MIC, standard serial dilution; assay type: cell-based; settings: nutrient agar, 37° C., 17 hours, as free base
[7] = tested on: Bacillus cereus ATCC 10702; assay: Antibacterial MIC, standard serial dilution; assay type: cell-based; settings: nutrient agar, 37° C., 17 hours, as free base
Escherichia coli W677 = assay: Antibacterial MIC, standard serial dilution; assay type: cell-based; settings: nutrient agar, 37° C., 17 hours, as free base
[8] = tested on: Pseudomonas aeruginosa K-Ps 102; assay: Antibacterial MIC, standard serial dilution; assay type: cell-based; settings: nutrient agar, 37° C., 17 hours, as free base
Escherichia coli K-12 = assay: Antibacterial MIC, standard serial dilution; assay type: cell-based; settings: nutrient agar, 37° C., 17 hours, as free base
[9] = tested on: Escherichia coli K-12 ML1630; assay: Antibacterial MIC, standard serial dilution; assay type: cell-based; settings: nutrient agar, 37° C., 17 hours, as free base
[10] = tested on: Pseudomonas aeruginosa PST1; assay: Antibacterial MIC, standard serial dilution; assay type: cell-based; settings: nutrient agar, 37° C., 17 hours, as free base
Serratia sp. 4 = assay: Antibacterial MIC, standard serial dilution; assay type: cell-based; settings: nutrient agar, 37° C., 17 hours, as free base
[11] = tested on: Staphylococcus epidermidis 109; assay: Antibacterial MIC, standard serial dilution; assay type: cell-based; settings: nutrient agar, 37° C., 17 hours, as free base
[12] = tested on: Escherichia coli K-12 LA290 R55; assay: Antibacterial MIC, standard serial dilution; assay type: cell-based; settings: nutrient agar, 37° C., 17 hours, as free base
Serratia marcescens = assay: Antibacterial MIC, standard serial dilution; assay type: cell-based; settings: nutrient agar, 37° C., 17 hours, as free base
Providencia sp. 2991 = assay: Antibacterial MIC, standard serial dilution; assay type: cell-based; settings: nutrient agar, 37° C., 17 hours, as free base
[13] = tested on: Pseudomonas aeruginosa A3; assay: Antibacterial MIC, standard serial dilution; assay type: cell-based; settings: nutrient agar, 37° C., 17 hours, as free base
[14] = tested on: Micrococcus flavus FDA 16; assay: Antibacterial MIC, standard serial dilution; assay type: cell-based; settings: nutrient agar, 37° C., 17 hours, as free base
[15] = tested on: Klebsiella pneumoniae 22#3038; assay: Antibacterial MIC, standard serial dilution; assay type: cell-based; settings: nutrient agar, 37° C., 17 hours, as free base
[16] = tested on: Pseudomonas aeruginosa GN315; assay: Antibacterial MIC, standard serial dilution; assay type: cell-based; settings: nutrient agar, 37° C., 17 hours, as free base
Serratia sp. SOU = assay: Antibacterial MIC, standard serial dilution; assay type: cell-based; settings: nutrient agar, 37° C., 17 hours, as free base
[17] = tested on: Pseudomonas aeruginosa TI-13; assay: Antibacterial MIC, standard serial dilution; assay type: cell-based; settings: nutrient agar, 37° C., 17 hours, as free base
[18] = tested on: Pseudomonas aeruginosa No. 12; assay: Antibacterial MIC, standard serial dilution; assay type: cell-based; settings: nutrient agar, 37° C., 17 hours, as free base
[19] = tested on: Corynebacterium bovis 1810; assay: Antibacterial MIC, standard serial dilution; assay type: cell-based; settings: nutrient agar, 37° C., 17 hours, as free base
[20] = tested on: Shigella dysenteriae JS11910; assay: Antibacterial MIC, standard serial dilution; assay type: cell-based; settings: nutrient agar, 37° C., 17 hours, as free base
[21] = tested on: Staphylococcus aureus Ap01; assay: Antibacterial MIC, standard serial dilution; assay type: cell-based; settings: nutrient agar, 37° C., 17 hours, as free base
Bacillus anthracis = assay type: cell-based; settings: nutrient agar, 37° C., 17 hours, as free base
[22] = tested on: Pseudomonas aeruginosa H9; assay: Antibacterial MIC, standard serial dilution; assay type: cell-based; settings: nutrient agar, 37° C., 17 hours, as free base
[23] = tested on: Staphylococcus aureus FDA 209P; assay: Antibacterial MIC, standard serial dilution; assay type: cell-based; settings: nutrient agar, 37° C., 17 hours, as free base
[24] = tested on: Bacillus subtilis NRRL B-558; assay: Antibacterial MIC, standard serial dilution; assay type: cell-based; settings: nutrient agar, 37° C., 17 hours, as free base
Sarcina lutea PCI 1001 = assay: Antibacterial MIC, standard serial dilution; assay type: cell-based; settings: nutrient agar, 37° C., 17 hours, as free base
[25] = tested on: Escherichia coli JR66/W677; assay: Antibacterial MIC, standard serial dilution; assay type: cell-based; settings: nutrient agar, 37° C., 17 hours, as free base
Escherichia coli JR225 = assay: Antibacterial MIC, standard serial dilution; assay type: cell-based; settings: nutrient agar, 37° C., 17 hours, as free base
[26] = tested on: Escherichia coli K-12 ML1410; assay: Antibacterial MIC, standard serial dilution; assay type: cell-based; settings: nutrient agar, 37° C., 17 hours, as free base
[27] = tested on: Staphylococcus aureus Smith; assay: Antibacterial MIC, standard serial dilution; assay type: cell-based; settings: nutrient agar, 37° C., 17 hours, as free base
Proteus rettgeri GN311 = assay: Antibacterial MIC, standard serial dilution; assay type: cell-based; settings: nutrient agar, 37° C., 17 hours, as free base
[28] = tested on: Escherichia coli K-12 J5R11-2; assay: Antibacterial MIC, standard serial dilution; assay type: cell-based; settings: nutrient agar, 37° C., 17 hours, as free base
[29] = tested on: Escherichia coli K-12 ML1629; assay: Antibacterial MIC, standard serial dilution; assay type: cell-based; settings: nutrient agar, 37° C., 17 hours, as free base
[30] = tested on: Mycobacterium smegmatis ATCC 607; assay: Antibacterial MIC, standard serial dilution; assay type: cell-based; settings: nutrient agar, 37° C., 17 hours, as free base
[31] = tested on: Escherichia coli K-12 R388; assay: Antibacterial MIC, standard serial dilution; assay type: cell-based; settings: nutrient agar, 37° C., 17 hours, as free base
[32] = tested on: Pseudomonas aeruginosa H11; assay: Antibacterial MIC, standard serial dilution; assay type: cell-based; settings: nutrient agar, 37° C., 17 hours, as free base
[33] = tested on: Escherichia coli K-12 LA290 R56; assay: Antibacterial MIC, standard serial dilution; assay type: cell-based; settings: nutrient agar, 37° C., 17 hours, as free base
Proteus rettgeri GN466 = assay: Antibacterial MIC, standard serial dilution; assay type: cell-based; settings: nutrient agar, 37° C., 17 hours, as free base
[34] = tested on: Salmonella enteritidis 1891; assay: Antibacterial MIC, standard serial dilution; assay type: cell-based; settings: nutrient agar, 37° C., 17 hours, as free base
[35] = tested on: Pseudomonas aeruginosa 21-75; assay: Antibacterial MIC, standard serial dilution; assay type: cell-based; settings: nutrient agar, 37° C., 17 hours, as free base

CNCC1CCC(N)C(OC2C(N)CC(O)C(N(C)C(=O)CNC=N)C2O)O1 (stereo not shown) [Demethyl formimidoyl ista B, 3-O-demethyl-2"-N-formimidoylistamycin B]
MIC [1]: 0.78 µg/mL (≈ 1.94 µM) | antibacterial activity (bacteria): active not only against Pseudomonas aeruginosa but also against a variety of resistant bacteria | MIC (Providencia sp. Pv16): 0.78 µg/mL (≈ 1.94 µM) | MIC (Escherichia coli NIHJ): 0.39 µg/mL (≈ 0.969 µM) | MIC [2]: 100 µg/mL (≈ 248 µM) | MIC [3]: > 100 µg/mL | MIC [4]: 0.20 µg/mL (≈ 0.497 µM) | MIC [5]: 100 µg/mL (≈ 248 µM) | MIC (Salmonella typhi T-63): < 0.20 µg/mL | MIC (Escherichia coli K-12 R5): 0.78 µg/mL (≈ 1.94 µM) | MIC [6]: 100 µg/mL (≈ 248 µM) | MIC (Proteus vulgaris 0X19): 0.39 µg/mL (≈ 0.969 µM) | MIC [7]: 0.78 µg/mL (≈ 1.94 µM) | MIC (Escherichia coli W677): 0.39 µg/mL (≈ 0.969 µM) | MIC [8]: 12.5 µg/mL (≈ 31.1 µM) | MIC (Escherichia coli K-12): 0.78 µg/mL (≈ 1.94 µM) | MIC [9]: 1.56 µg/mL (≈ 3.88 µM) | MIC [10]: 25 µg/mL (≈ 62.1 µM) | MIC (Serratia sp. 4): 12.5 µg/mL (≈ 31.1 µM) | MIC [11]: 0.20 µg/mL (≈ 0.497 µM) | MIC [12]: 0.78 µg/mL (≈ 1.94 µM) | MIC (Serratia marcescens): 1.56 µg/mL (≈ 3.88 µM) | MIC (Providencia sp. 2991): 0.78 µg/mL (≈ 1.94 µM) | MIC [13]: 0.20 µg/mL (≈ 0.497 µM) | MIC [14]: 0.39 µg/mL (≈ 0.969 µM) | MIC [15]: 1.56 µg/mL (≈ 3.88 µM) | MIC [16]: 6.25 µg/mL (≈ 15.5 µM) | MIC (Serratia sp. SOU): 12.5 µg/mL (≈ 31.1 µM) | MIC [17]: 12.5 µg/mL (≈ 31.1 µM) | MIC [18]: 12.5 µg/mL (≈ 31.1 µM) | MIC [19]: < 0.20 µg/mL | MIC [20]: 1.56 µg/mL (≈ 3.88 µM) | MIC [21]: 0.39 µg/mL (≈ 0.969 µM) | MIC (Bacillus anthracis): 0.39 µg/mL (≈ 0.969 µM) | MIC [22]: 12.5 µg/mL (≈ 31.1 µM) | MIC [23]: 0.39 µg/mL (≈ 0.969 µM) | MIC [24]: < 0.20 µg/mL | MIC (Sarcina lutea PCI 1001): 0.39 µg/mL (≈ 0.969 µM) | MIC [25]: 1.56 µg/mL (≈ 3.88 µM) | MIC (Escherichia coli JR225): 0.39 µg/mL (≈ 0.969 µM) | MIC [26]: 1.56 µg/mL (≈ 3.88 µM) | MIC [27]: < 0.20 µg/mL | MIC (Proteus rettgeri GN311): 0.39 µg/mL (≈ 0.969 µM) | MIC [28]: 1.56 µg/mL (≈ 3.88 µM) | MIC [29]: 0.78 µg/mL (≈ 1.94 µM) | MIC [30]: 0.39 µg/mL (≈ 0.969 µM) | MIC [31]: 0.78 µg/mL (≈ 1.94 µM) | MIC [32]: 25 µg/mL (≈ 62.1 µM) | MIC [33]: 0.78 µg/mL (≈ 1.94 µM) | MIC (Proteus rettgeri GN466): 0.39 µg/mL (≈ 0.969 µM) | MIC [34]: 1.56 µg/mL (≈ 3.88 µM) | MIC [35]: 25 µg/mL (≈ 62.1 µM)
